Measurements published in patent publication US8394355B2, “Use of UTP for the diagnosis of stenoses and other conditions of restricted blood flow” (P2 science Aps, priority 2009, dated 2013).
Values joined by “and” are separate entries in the source; they are usually repeats but may differ in a detail not shown here. Equal entries are not always repeated. “Also recorded” adds a separate entry of the source.

Legend:
[1] = tested on: coronary arteries in humans with coronary artery disease; assay: FFR during continuous intracoronary infusion via microcatheter (Example 3); assay type: in vivo; details: for % of patients with FFR ≦ 0.8 / adverse effects during IC continuous infusion: microcatheter study; for adverse effects during IC continuous infusion: 10 patients; for optimal dose for achieving maximal coronary hyperemia and thereby the lowest FFR: FIG. 5
Excerpt: As described previously, inducing stable maximal coronary hyperemia is essential for measurement of fractional flow reserve (FFR). This second experiment in a similar patient group evaluated the differential efficacy of intracoronary (IC) continuous adenosine infusion vs. IC continuous uridine triphosphate (UTP) infusion via a microcatheter for inducing steady state maximal coronary hyperemia. The present study was designed to evaluate the safety and effectiveness of the equimolar concentrations of UTP vs. adenosine infusion for use in the FFR method. Time to achievement of steady-state, impact of maximal hyperemia (lowest FFR) for the different compounds and side effects were recorded in 10 patients with intermediate coronary lesions. FFR was measured consecutively by IC continuous adenosine or UTP infusion using a microcatheter to bypass the proximal pressure transducer. The IC microcatheter (Progreat Microcatheter System, Terumo, Japan) used was positioned at the coronary ostium, and FFR was then measured by increasing IC continuous adenosine or UTP infusion rates in equimolar concentrations from 10 to 400 μg/min via the microcatheter.
After femoral catheterization, coronary angiography was performed with the standard femoral approach. Heparin was administered according to standard procedures.
Intracoronary nitroglycerin (0.2-0.3 mg) was administered before the control angiograms were made in the microcatheter study. Heart rate and arterial pressure were continuously monitored throughout the procedure. After a guiding catheter (5F catheter, Cordis Corp.) without side holes was positioned at the coronary ostium, coronary angiograms were obtained from multiple projections. Quantitative coronary analysis was performed by using an independent analyzer blinded to the results of FFR using a computer-assisted, automated computerized edge-detection algorithm (Siemens Medical System). The external diameter of the contrast-filled catheter was used as a calibration standard. Minimal luminal diameter, vessel diameter of the reference segment, and the percent diameter stenosis at end diastole were measured from the worst-view trace. After coronary angiography, a 0.014-in. pressure wire (Combowire, Volcano Corporation, US) was advanced distally to the stenosis through a 6F guiding catheter. In the microcatheter study, an IC bolus injection of nitroglycerin (0.2-0.3 mg) was given before advancing the pressure wire through the stenosis in order to avoid any mechanically-induced coronary vasoconstriction. The pressure wire was externally calibrated and then advanced to the distal tip of the catheter. It was verified whether equal pressure was recorded at both the catheter and the pressure wire. The pressure wire was advanced through the coronary catheter, introduced into the coronary artery, and positioned distal to the stenosis.
Distal coronary pressure (Pd) and proximal coronary pressure (Pa) were measured at baseline and at maximal hyperemia (adenosine vs. UTP) simultaneously. Fractional flow reserve was calculated by dividing mean Pd by mean Pa during maximal hyperemia. The time to optimal vasodilatation (time needed to reach >90% of the minimal value of Pd/Pa after administration of the adenosine or UTP) was computed in order to assess whether procedure time was prolonged. The hyperemic stimuli were given as follows: an IC continuous infusion of adenosine or UTP in incremental doses of 10, 20, 40, 80, 160, 240, […] and 400 μg/min, in both the left and right coronary artery depending upon lesion anatomy. The dosages were increased stepwise by IC continuous infusion with the microcatheter where the stepwise dose increase was recorded continuously without breaks. After each stepwise increase, FFR and CFR were recorded automatically. The next hyperemic stimulus UTP vs adenosine was given when Pa, Pd, and heart rate returned to their baseline values.

[2] = tested on: coronary arteries in humans with coronary artery disease; assay: FFR during continuous intracoronary infusion via guiding catheter (Example 2); assay type: in vivo; set-up: key: FFR = Pd/Pa (distal/proximal coronary pressure ratio); details: Example 5 summary; Ttest 0.0034 adenosine vs UTP
[3] = tested on: coronary arteries in humans with coronary artery disease; assay: FFR during continuous intracoronary infusion via microcatheter (Example 3); assay type: in vivo; details: individual patients, 320 μg/min
leg blood flow = details: cited from earlier work; for relative vasoactive potency (rank order): only for blood flows around 3.5 Lmin^−1

SMILES | FFR Mean ([1]; mean of patients, 10 μg/min) | FFR Mean ([1]; mean, 20 μg/min) | FFR Mean ([1]; mean, 40 μg/min) | FFR Mean ([1]; mean, 80 μg/min) | FFR Mean ([1]; mean, 160 μg/min) | FFR Mean ([1]; mean, 240 μg/min) | FFR Mean ([1]; mean, 320 μg/min) | FFR Mean ([1]; mean, 400 μg/min) | % of patients with FFR ≦ 0.8 ([1]; 80 μg/min (n = 8)) | % of patients with FFR ≦ 0.8 ([1]; 160 μg/min (n = 6)) | % of patients with FFR ≦ 0.8 ([1]; 320 μg/min (n = 9)) | % of patients with FFR ≦ 0.8 ([1]; 400 μg/min (n = 3)) | adverse effects during IC continuous infusion [1] | optimal dose for achieving maximal coronary hyperemia and thereby the lowest FFR ([1]; microcatheter) | FFR Mean [2] | relative vasoactive potency (rank order) (leg blood flow) | other results
O=c1ccn([C@@H]2O[C@H](COP(=O)(O)OP(=O)(O)OP(=O)(O)O)C(O)[C@@H]2O)c(=O)[nH]1 (stereo partly shown) [UTP, Uridine 5-triphosphate] | 0.84 | 0.83 | 0.83 | 0.78 | 0.79 | 0.79 | 0.79 | 0.79 | 62 % of patients | 50 % of patients | 44 % of patients | 33 % of patients | None of the patients had chest pain in the UTP group; also recorded: All patients tolerated UTP without side effects | approximately 80 μg/min | 0.72 | 100 | FFR in comparison to IC adenosine infusion ([1]; P<0.05): significantly lower; steady-stable hyperemia lasted longer compared to adenosine infusion ([1]; in vivo): ~20 s; FFR ([1]; individual patients (row = patient no.), IC continuous infusion 10 μg/min, microcatheter): 0.72 and 0.95 and 0.84; FFR ([1]; individual patients, 20 μg/min): 0.71 and 0.95; FFR ([1]; individual patients, 40 μg/min): 0.72 and 0.95 and 0.83; FFR ([1]; individual patients, 80 μg/min): 0.73 and 0.79 and 0.88 and 0.56 and 0.71 and 0.97 and 0.83; FFR ([1]; individual patients, 160 μg/min): 0.90 and 0.73 and 0.79 and 0.86 and 0.56 and 0.71 and 0.92 and 0.83; FFR ([1]; individual patients, 240 μg/min): 0.89 (2×) and 0.73 and 0.79 and 0.87 and 0.55; FFR ([1]; individual patients, 400 μg/min): 0.90 and 0.92 and 0.56; induction time to optimal coronary hyperemia ([1]; versus IC continuous adenosine infusion): shorter; FFR [3]: 0.90 (2×) and 0.89 and 0.72 and 0.77 and 0.86 and 0.56 and 0.69 and 0.84; blood flow increase, % of maximum in the leg during hard exercise (leg blood flow; local infusion): 60%
Nc1ncnc2c1ncn2[C@@H]1O[C@H](CO)[C@@H](O)[C@H]1O [adenosine] | 0.90 | 0.88 | 0.86 | 0.84 | 0.82 | 0.81 | 0.82 | 0.82 | 37 % of patients | 33 % of patients | 44 % of patients | 33 % of patients | nearly all felt angina in the adenosine group; also recorded: some patients had a transient second degree A-V block; also recorded: nearly all patients experienced side effects | ~240 µg/min | 0.77 | 5.8 | FFR ([1]; individual patients (row = patient no.), IC continuous infusion 10 μg/min, microcatheter, listed as ADO): 0.81 and 0.94 and 0.86 and 0.99; FFR ([1]; individual patients, 20 μg/min, listed as ADO): 0.75 and 0.94 and 0.95; FFR ([1]; individual patients, 40 μg/min, listed as ADO): 0.73 and 0.94 (2×) and 0.82; FFR ([1]; individual patients, 80 μg/min, listed as ADO): 0.83 and 0.95 and 0.76 and 0.71 and 0.94 and 0.82 and 0.88; FFR ([1]; individual patients, 160 μg/min, listed as ADO): 0.80 and 0.95 (2×) and 0.60 and 0.68 and 0.85 and 0.96 and 0.75; FFR ([1]; individual patients, 240 μg/min, listed as ADO): 0.81 and 0.94 and 0.60 and 0.87 and 0.91 and 0.71; FFR ([1]; individual patients, 400 μg/min, listed as ADO): 0.56 and 1.01 and 0.89; FFR ([3]; listed as ADO): 0.79 and 0.96 and 0.54 and 0.70 (2×) and 0.95 and 0.86 and 1.02 and 0.89
